Test results reported in patent US11780826B2 (Amgen Inc., priority 2017, dated 2023).

Tested on: Bovine cardiac myofibrils
Assay: In vitro model of dose-dependent myofibril ATPase modulation (AC1.4, pyruvate kinase/lactate dehydrogenase-coupled ATPase assay at pCa25)
Type: biochemical
Settings: concentration at which ATPase activity was 1.4-fold higher than the bottom of the dose curve, mean of a minimum of two independent tests
Method in brief: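 ATP turnover tracked as NADH absorbance loss at 340 nm, coupled via pyruvate kinase/lactate dehydrogenase, with 1 mM ATP, 2 mM MgCl2 and 12 mM K-PIPES at pH 6.80 (22° C) under EGTA/CaCl2 calcium buffering. Substrate was detergent-treated bovine cardiac myofibrils; 4-parameter curve fit, AC1.4 averaged over at least two runs.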

AC1.4 [µM]	SMILES
0.7014	N#CC1CN(S(=O)(=O)N2CCC[C@H](C(=O)N3CCC[C@@H]3C(=O)NC3CC(CO)c4ccccc43)C2)C1 (stereo partly drawn) [Example 276, (2R)-1-((S)-1-((3-cyanoazetidin-1-yl)sulfonyl)piperidine-3-carbonyl)-N-(3-(hydroxymethyl)-2,3-dihydro-1H-inden-1-yl)pyrrolidine-2-carboxamide]
0.921	N#CC1CN(S(=O)(=O)N2CCC[C@H](C(=O)N3CCC[C@@H]3C(=O)NCc3ccc(Cl)c(C(F)(F)F)c3)C2)C1 [Example 333, N-(4-chloro-3-(trifluoromethyl)benzyl)-1-(((3S)-1-((3-cyano-1-azetidinyl)sulfonyl)-3-piperidinyl)carbonyl)-D-prolinamide]
0.7956	CN(C)S(=O)(=O)c1cccc(C(=O)N2CCC[C@@H]2C(=O)NCc2ccc(Cl)c(F)c2)c1 [Example 303, N-(4-chloro-3-fluorobenzyl)-1-(3-(dimethylsulfamoyl)benzoyl)-D-prolinamide]
2.278	O=C(N[C@@H](c1ccc(C(F)(F)F)cc1F)C1CC1)[C@H]1C[C@H]2C[C@H]2N1C(=O)c1ccnc(C(F)(F)F)c1 [Example 495, (1R,3R,5R)-N-((R)-cyclopropyl(2-fluoro-4-(trifluoromethyl)phenyl)methyl)-2-((2-(trifluoromethyl)-4-pyridinyl)carbonyl)-2-azabicyclo[3.1.0]hexane-3-carboxamide]
5.8345	CCOc1ccc(CNC(=O)[C@H]2CCCN2C(=O)[C@H]2CCCN(S(=O)(=O)N3CC(C#N)C3)C2)cc1F [Example 708, 1-(((3S)-1-((3-cyano-1-azetidinyl)sulfonyl)-3-piperidinyl)carbonyl)-N-(4-ethoxy-3-fluorobenzyl)-D-prolinamide]
1.11	N#CC1CN(S(=O)(=O)N2CCC[C@H](C(=O)N3CCC[C@@H]3C(=O)NCc3ccc(F)cc3F)C2)C1 [Example 360, 1-(((3S)-1-((3-cyano-1-azetidinyl)sulfonyl)-3-piperidinyl)carbonyl)-N-(2,4-difluorobenzyl)-D-prolinamide]
3.8643	N#CC1CN(S(=O)(=O)N2CCC[C@H](C(=O)N3CCC[C@@H]3C(=O)NCc3ccc(Cl)nc3)C2)C1 [Example 613, N-((6-chloro-3-pyridinyl)methyl)-1-(((3S)-1-((3-cyano-1-azetidinyl)sulfonyl)-3-piperidinyl)carbonyl)-D-prolinamide]
1.34	COc1cc(CNC(=O)[C@H]2CCCN2C(=O)[C@H]2CCCN(S(=O)(=O)N3CC(C#N)C3)C2)ccc1C [Example 387, 1-(((3S)-1-((3-cyano-1-azetidinyl)sulfonyl)-3-piperidinyl)carbonyl)-N-(3-methoxy-4-methylbenzyl)-D-prolinamide]
0.9372	Cc1ccc(CNC(=O)[C@H]2CCCN2C(=O)[C@H]2CCCN(S(=O)(=O)N3CC(C#N)C3)C2)cc1C [Example 336, 1-(((3S)-1-((3-cyano-1-azetidinyl)sulfonyl)-3-piperidinyl)carbonyl)-N-(3,4-dimethylbenzyl)-D-prolinamide]
1.845	O=C(NCc1ccc(C(F)(F)F)cc1F)[C@H]1CCCN1C(=O)c1cccc(S(=O)(=O)N2CC(O)C2)c1 [Example 449, N-(2-fluoro-4-(trifluoromethyl)benzyl)-1-(3-((3-hydroxy-1-azetidinyl)sulfonyl)benzoyl)-D-prolinamide]
4.421	N#CC1CN(S(=O)(=O)N2CC[C@H](C(=O)N3CCC[C@@H]3C(=O)NCc3ccc(C(F)(F)F)cc3)C2)C1 [Example 648, 1-(((3S)-1-((3-cyano-1-azetidinyl)sulfonyl)-3-pyrrolidinyl)carbonyl)-N-(4-(trifluoromethyl)benzyl)-D-prolinamide]
8.931	O=C(NCc1ccc(C(F)(F)F)cc1)[C@H]1CCCN1C(=O)[C@H]1CCCN(S(=O)(=O)N2CC(CC(F)(F)F)C2)C1 [Example 787, 1-(((3S)-1-((3-(2,2,2-trifluoroethyl)-1-azetidinyl)sulfonyl)-3-piperidinyl)carbonyl)-N-(4-(trifluoromethyl)benzyl)-D-prolinamide]
0.06485	CN(C)S(=O)(=O)c1cccc(C(=O)N2CCC[C@@H]2C(=O)N[C@@H](c2ccc(C(F)(F)F)cc2F)C2CC2)c1 [Example 58, N-((R)-cyclopropyl(2-fluoro-4-(trifluoromethyl)phenyl)methyl)-1-(3-(dimethylsulfamoyl)benzoyl)-D-prolinamide]
0.7012	CS(=O)(=O)c1cccc(C(=O)N2[C@@H](C(=O)N[C@@H](c3cc(F)c(Cl)c(F)c3)C3CC3)C[C@H]3C[C@H]32)c1 [Example 278, (1R,3R,5R)-N-((R)-(4-chloro-3,5-difluorophenyl)(cyclopropyl)methyl)-2-(3-(methylsulfonyl)benzoyl)-2-azabicyclo[3.1.0]hexane-3-carboxamide]
0.5241	O=C(N[C@@H](c1cc(F)c(Cl)cc1F)C1COC1)[C@H]1C[C@H]2C[C@H]2N1C(=O)c1cc(C(F)(F)F)ccn1 [Example 233, (1R,3R,5R)-N-((R)-(4-chloro-2,5-difluorophenyl)(3-oxetanyl)methyl)-2-((4-(trifluoromethyl)-2-pyridinyl)carbonyl)-2-azabicyclo[3.1.0]hexane-3-carboxamide]
4.3125	Cc1cccc(CNC(=O)[C@H]2CCCN2C(=O)[C@H]2CCCN(S(=O)(=O)N3CC(C#N)C3)C2)c1 [Example 643, 1-(((3S)-1-((3-cyano-1-azetidinyl)sulfonyl)-3-piperidinyl)carbonyl)-N-(3-methylbenzyl)-D-prolinamide]
0.3064	C[C@@H](NC(=O)[C@H]1COCCN1C(=O)[C@H]1CCCN(S(=O)(=O)N2CC(C#N)C2)C1)c1ccc(C(F)(F)F)cc1 [Example 175, (3R)-4-(((3S)-1-((3-cyano-1-azetidinyl)sulfonyl)-3-piperidinyl)carbonyl)-N-((1R)-1-(4-(trifluoromethyl)phenyl)ethyl)-3-morpholinecarboxamide]
3.9205	Cc1ccc(Cl)cc1CNC(=O)[C@H]1CCCN1C(=O)[C@H]1CCCN(S(=O)(=O)N2CC(C#N)C2)C1 [Example 618, N-(5-chloro-2-methylbenzyl)-1-(((3S)-1-((3-cyano-1-azetidinyl)sulfonyl)-3-piperidinyl)carbonyl)-D-prolinamide]

SMILES	AC1.4 [µM]
CS(=O)(=O)c1cccc(C(=O)N2C[C@H]3C[C@H]3[C@@H]2C(=O)N[C@@H](c2ccc(C(F)(F)F)cc2F)C2CC2)c1 [Example 407, (1R,2R,5S)-N-((R)-cyclopropyl(2-fluoro-4-(trifluoromethyl)phenyl)methyl)-3-(3-(methylsulfonyl)benzoyl)-3-azabicyclo[3.1.0]hexane-2-carboxamide]	1.427
CS(=O)(=O)c1cncc(C(=O)N2[C@@H](C(=O)N[C@@H](c3cc(F)c(C(F)(F)F)cc3F)C3CC3)C[C@@H]3C[C@@H]32)c1 [Example 598, (1S,3R,5S)-N-((R)-cyclopropyl(2,5-difluoro-4-(trifluoromethyl)phenyl)methyl)-2-((5-(methylsulfonyl)-3-pyridinyl)carbonyl)-2-azabicyclo[3.1.0]hexane-3-carboxamide]	3.0525
